The text below walks through data of ChEMBL document CHEMBL1133057, “Synthesis and in vitro antibacterial activity of 3-[N-methyl-N-(3-methyl-1,3-thiazolium-2-yl)aminolmethyl cephalosporin derivatives” (2000).

In general, MIC refers to the least concentration at which growth counts as inhibited. Lower therefore signals a more susceptible organism.

Assay [1] has as its system Pseudomonas aeruginosa. Briefly: Compound was tested in vitro for its minimum inhibitory concentration by serial 2-fold agar dilution Muller Hinton method against Pseudomonas aeruginosa 1771. In kind it is functional.
Assay [2] concerns Pseudomonas aeruginosa. Briefly: Compound was tested in vitro for its minimum inhibitory concentration by serial 2-fold agar dilution Muller Hinton method against Pseudomonas aeruginosa 1771 M. In kind it is functional. A general note: Agar dilution tests growth on a series of plates holding different concentrations.
Assay [3] has as its system Escherichia coli. Briefly: Compound was tested in vitro for its minimum inhibitory concentration by serial 2-fold agar dilution Muller Hinton method against Escherichia coli TEM. In kind it is functional.
Assay [4] has as its system Pseudomonas aeruginosa. The assay can be described thus: Compound was tested in vitro for its minimum inhibitory concentration by serial 2-fold agar dilution Muller Hinton method against Pseudomonas aeruginosa 9027. In kind it is functional.
For assay [5], the system named is Streptococcus pyogenes. Briefly: Compound was tested in vitro for its minimum inhibitory concentration by serial 2-fold agar dilution Muller Hinton method against Streptococcus pyogenes A77. In kind it is functional.
Assay [6] concerns Escherichia coli. The assay can be described thus: Compound was tested in vitro for its minimum inhibitory concentration by serial 2-fold agar dilution Muller Hinton method against Escherichia coli DC 2. It counts as functional.
The subject of assay [7] is Enterobacter cloacae. Briefly: Compound was tested in vitro for its minimum inhibitory concentration by serial 2-fold agar dilution Muller Hinton method against Enterobacter cloacae 1321. It counts as functional.
Assay [8] concerns Enterobacter cloacae. Briefly: Compound was tested in vitro for its minimum inhibitory concentration by serial 2-fold agar dilution Muller Hinton method against Enterobacter cloacae P99. In kind it is functional.
The subject of assay [9] is Escherichia coli. The assay can be described thus: Compound was tested in vitro for its minimum inhibitory concentration by serial 2-fold agar dilution Muller Hinton method against Escherichia coli 1507E. It counts as functional.
Assay [10] relates to Staphylococcus aureus. The assay can be described thus: Compound was tested in vitro for its minimum inhibitory concentration by serial 2-fold agar dilution Muller Hinton method against Staphylococcus aureus SG511. It counts as functional.
Assay [11] concerns Staphylococcus aureus. Briefly: Compound was tested in vitro for its minimum inhibitory concentration by serial 2-fold agar dilution Muller Hinton method against Staphylococcus aureus 503. It counts as functional.
Assay [12] relates to Staphylococcus aureus. The assay can be described thus: Compound was tested in vitro for its minimum inhibitory concentration by serial 2-fold agar dilution Muller Hinton method against Staphylococcus aureus 285. In kind it is functional.
The subject of assay [13] is Escherichia coli. The assay can be described thus: Compound was tested in vitro for its minimum inhibitory concentration by serial 2-fold agar dilution Muller Hinton method against Escherichia coli DC 0. It counts as functional.
Another assay relates to Klebsiella oxytoca. Briefly: Compound was tested in vitro for its minimum inhibitory concentration by serial 2-fold agar dilution Muller Hinton method against Klebsiella oxytoca 1082 E. It counts as functional.
In assay [14] the test system is Escherichia coli. The assay can be described thus: Compound was tested in vitro for its minimum inhibitory concentration by serial 2-fold agar dilution Muller Hinton method against Escherichia coli O 55. It counts as functional.
The test system of assay [15] is Streptococcus pyogenes. The assay can be described thus: Compound was tested in vitro for its minimum inhibitory concentration by serial 2-fold agar dilution Muller Hinton method against Streptococcus pyogenes 8b. In kind it is functional.
Assay [16] relates to Streptococcus pyogenes. Briefly: Compound was tested in vitro for its minimum inhibitory concentration by serial 2-fold agar dilution Muller Hinton method against Streptococcus pyogenes A 308. In kind it is functional.
The subject of another assay is Salmonella typhimurium. The assay can be described thus: Compound was tested in vitro for its minimum inhibitory concentration by serial 2-fold agar dilution Muller Hinton method against Salmonella Typhimurium. It counts as functional, Salmonella enterica subsp. enterica serovar Typhimurium. The conditions noted are these: Salmonella enterica.
In a further assay the test system is Klebsiella aerogenes. Briefly: Compound was tested in vitro for its minimum inhibitory concentration by serial 2-fold agar dilution Muller Hinton method against Klebsiella aerogenes 1522 E. In kind it is functional.
Assay [17] relates to Pseudomonas aeruginosa. The assay can be described thus: Compound was tested in vitro for its minimum inhibitory concentration by serial 2-fold agar dilution Muller Hinton method against Pseudomonas aeruginosa 1592 E. It counts as functional.

Converted amounts (≈) assume the structure as drawn.

Take `C=CCO/N=C(\C(=O)NC1C(=O)N2C(C(=O)[O-])=C(CN(C)c3sc(C(=O)OCC)c(C)[n+]3C)CSC12)c1csc(N)n1` (stereo not given): the minimal inhibitory concentration (MIC) was 3.12 µg/mL (≈ 4.92 µM) with Pseudomonas aeruginosa [1]; 0.391 µg/mL (≈ 0.615 µM) against Pseudomonas aeruginosa [2]; 0.098 µg/mL (≈ 0.154 µM) with Escherichia coli [3]; 25 µg/mL (≈ 39.3 µM) against Pseudomonas aeruginosa [4]; 0.013 µg/mL (≈ 0.0204 µM) against Streptococcus pyogenes [5]; 0.025 µg/mL (≈ 0.0393 µM) in the assay with Escherichia coli [6]. Besides, the MIC was 0.025 µg/mL (≈ 0.0393 µM) with Enterobacter cloacae [7]; 25 µg/mL (≈ 39.3 µM) with Enterobacter cloacae [8]; 0.098 µg/mL (≈ 0.154 µM) against Escherichia coli [9]; 0.781 µg/mL (≈ 1.23 µM) with Staphylococcus aureus [10]; 0.391 µg/mL (≈ 0.615 µM) against Staphylococcus aureus [11]; 1.56 µg/mL (≈ 2.46 µM) against Staphylococcus aureus [12]. Besides, the MIC amounted to 0.098 µg/mL (≈ 0.154 µM) against Escherichia coli [13]; 6.25 µg/mL (≈ 9.83 µM) with Klebsiella oxytoca; 0.025 µg/mL (≈ 0.0393 µM) in the assay with Escherichia coli [14]; 50 µg/mL (≈ 78.6 µM) against Streptococcus pyogenes [15]; 0.013 µg/mL (≈ 0.0204 µM) against Streptococcus pyogenes [16]; 0.049 µg/mL (≈ 0.0771 µM) in the assay on Salmonella typhimurium. Further, the minimum inhibitory concentration (MIC) in the assay on Klebsiella aerogenes is 0.049 µg/mL (≈ 0.0771 µM); in the assay on Pseudomonas aeruginosa [17], 12.5 µg/mL (≈ 19.7 µM).
Consider `C=CCO/N=C(\C(=O)NC1C(=O)N2C(C(=O)[O-])=C(CN(C)c3scc(C)[n+]3C)CSC12)c1csc(N)n1` (stereo not given), for which the MIC against Pseudomonas aeruginosa [1] came to 6.25 µg/mL (≈ 11.1 µM); against Pseudomonas aeruginosa [2], 0.195 µg/mL (≈ 0.346 µM); against Escherichia coli [3], 0.195 µg/mL (≈ 0.346 µM); in the assay with Pseudomonas aeruginosa [4] it was 25 µg/mL (≈ 44.4 µM); with Streptococcus pyogenes [5], 0.007 µg/mL (≈ 0.0124 µM); in the assay on Escherichia coli [6], 0.025 µg/mL (≈ 0.0444 µM). Besides, the MIC against Enterobacter cloacae [7] amounted to 0.098 µg/mL (≈ 0.174 µM); in the assay with Enterobacter cloacae [8], 25 µg/mL (≈ 44.4 µM); against Escherichia coli [9], 0.195 µg/mL (≈ 0.346 µM); against Staphylococcus aureus [10] it was 0.391 µg/mL (≈ 0.694 µM); in the assay with Staphylococcus aureus [11], 0.195 µg/mL (≈ 0.346 µM); against Staphylococcus aureus [12], 0.781 µg/mL (≈ 1.39 µM). Also, the MIC against Escherichia coli [13] amounted to 0.195 µg/mL (≈ 0.346 µM); in the assay with Klebsiella oxytoca, 12.5 µg/mL (≈ 22.2 µM); with Escherichia coli [14], 0.049 µg/mL (≈ 0.0869 µM); with Streptococcus pyogenes [15] it was 25 µg/mL (≈ 44.4 µM); against Streptococcus pyogenes [16], 0.013 µg/mL (≈ 0.0231 µM); against Salmonella typhimurium, 0.098 µg/mL (≈ 0.174 µM). The MIC against Klebsiella aerogenes turned out to be 0.098 µg/mL (≈ 0.174 µM); in the assay with Pseudomonas aeruginosa [17], 12.5 µg/mL (≈ 22.2 µM).
Regarding `CO/N=C(\C(=O)N[C@@H]1C(=O)N2C(C(=O)O)=C(COC(C)=O)CS[C@H]12)c1csc(N)n1` [CEFOTAXIME], the MIC against Pseudomonas aeruginosa [1] amounted to 3.12 µg/mL (≈ 6.86 µM); against Pseudomonas aeruginosa [2], 0.098 µg/mL (≈ 0.215 µM); against Escherichia coli [3], 0.025 µg/mL (≈ 0.0549 µM); in the assay on Pseudomonas aeruginosa [4] it was 25 µg/mL (≈ 54.9 µM); in the assay on Streptococcus pyogenes [5], 0.002 µg/mL (≈ 0.00439 µM); against Escherichia coli [6], 0.013 µg/mL (≈ 0.0285 µM). Also, the MIC is 0.007 µg/mL (≈ 0.0154 µM) against Enterobacter cloacae [7]; 100 µg/mL (≈ 220 µM) against Enterobacter cloacae [8]; 0.025 µg/mL (≈ 0.0549 µM) in the assay on Escherichia coli [9]; 1.56 µg/mL (≈ 3.43 µM) with Staphylococcus aureus [10]; 0.781 µg/mL (≈ 1.71 µM) against Staphylococcus aureus [11]; 3.12 µg/mL (≈ 6.86 µM) in the assay with Staphylococcus aureus [12]. In addition, the minimum inhibitory concentration (MIC) came to 0.025 µg/mL (≈ 0.0549 µM) against Escherichia coli [13]; 1.56 µg/mL (≈ 3.43 µM) in the assay with Klebsiella oxytoca; 0.007 µg/mL (≈ 0.0154 µM) in the assay with Escherichia coli [14]; 100 µg/mL (≈ 220 µM) against Streptococcus pyogenes [15]; 0.007 µg/mL (≈ 0.0154 µM) against Streptococcus pyogenes [16]; 0.025 µg/mL (≈ 0.0549 µM) against Salmonella typhimurium. Besides, the results for the MIC in the assay on Klebsiella aerogenes and against Pseudomonas aeruginosa [17] were 0.025 µg/mL (≈ 0.0549 µM) and 12.5 µg/mL (≈ 27.4 µM), respectively.
Consider `CO/N=C(\C(=O)N[C@@H]1C(=O)N2C(C(=O)[O-])=C(C[n+]3cccc4c3CCC4)CS[C@H]12)c1csc(N)n1` [CEFPIROME], for which the MIC against Pseudomonas aeruginosa [1] was 0.781 µg/mL (≈ 1.52 µM); against Pseudomonas aeruginosa [2], 0.391 µg/mL (≈ 0.76 µM); with Escherichia coli [3] it was 0.049 µg/mL (≈ 0.0952 µM); in the assay on Pseudomonas aeruginosa [4] it was 3.12 µg/mL (≈ 6.07 µM); in the assay on Streptococcus pyogenes [5], 0.007 µg/mL (≈ 0.0136 µM); in the assay with Escherichia coli [6] it was 0.049 µg/mL (≈ 0.0952 µM). For the same molecule, the MIC against Enterobacter cloacae [7] was 0.013 µg/mL (≈ 0.0253 µM); against Enterobacter cloacae [8], 3.12 µg/mL (≈ 6.07 µM); in the assay with Escherichia coli [9] it was 0.025 µg/mL (≈ 0.0486 µM); against Staphylococcus aureus [10], 0.391 µg/mL (≈ 0.76 µM); against Staphylococcus aureus [11], 0.098 µg/mL (≈ 0.19 µM); against Staphylococcus aureus [12], 0.781 µg/mL (≈ 1.52 µM). Further, the MIC against Escherichia coli [13] is 0.013 µg/mL (≈ 0.0253 µM); in the assay on Klebsiella oxytoca, 1.56 µg/mL (≈ 3.04 µM); against Escherichia coli [14] it was 0.025 µg/mL (≈ 0.0486 µM); against Streptococcus pyogenes [15] it was 1.56 µg/mL (≈ 3.04 µM); against Streptococcus pyogenes [16] it was 0.007 µg/mL (≈ 0.0136 µM); against Salmonella typhimurium it was 0.025 µg/mL (≈ 0.0486 µM). Besides, the MIC with Klebsiella aerogenes turned out to be 0.025 µg/mL (≈ 0.0486 µM); against Pseudomonas aeruginosa [17], 1.56 µg/mL (≈ 3.04 µM).
